Experiments:
PC-3 = assay: CCK-8 cytotoxicity assay, PC-3; format: cell-based, human; conditions: for IC50: Homo sapiens, PC-3 cells, CCK-8, 24 h, mean ± SD of three experiments
Method: (§1) Cell proliferation was measured using the CCK-8 assay kit ([Kaspers et al., 1997]; [Kaspers et al., 1998]; [Ding et al., 2010]). Cells were seeded into 96-well plates (>5*10^4) with approximately 100 ul of cell suspension per well and incubated in 37°C incubator for 4 h. Various concentrations of the compounds were then added and incubated for a further 24 h in a 37°C incubator. Finally, 10 ul CCK8 was added and incubated for 0.5–4 h, absorbance at 450 nm was determined. ([Guo et al., 2021]; [He et al., 2022a]; [Hu et al., 2022]).
(§2) The in vitro cytotoxic activity results of the synthesized derivatives 3–17 against human prostate cancer lines (PC-3, LNCaP, and DU145) and the human prostate epithelial cell line (WPMY-1) were evaluated, as shown in Table 1.

LNCaP = assay: CCK-8 cytotoxicity assay, LNCaP; format: cell-based, human; conditions: for IC50: Homo sapiens, LNCaP cells, CCK-8, 24 h, mean ± SD of three experiments
Method: as §1, §2

DU145 = assay: CCK-8 cytotoxicity assay, DU145; format: cell-based, human; conditions: for IC50: Homo sapiens, DU-145, DU145 cells, CCK-8, 24 h, mean ± SD of three experiments
Method: as §1, §2

WPMY-1 = assay: CCK-8 cytotoxicity assay, WPMY-1 normal prostate epithelial cells; format: cell-based; conditions: WPMY-1 normal human prostate epithelial cells, CCK-8, 24 h; mean ± SD of three experiments
Method: as §1, §2

AR = molecular target: T1, AR (Homo sapiens, UniProt P10275); assay: AR reporter gene (luciferase) assay; format: cell-based; conditions: read-out: AR antagonistic activity % (10 μM)
T1 sequence (P10275 1-920): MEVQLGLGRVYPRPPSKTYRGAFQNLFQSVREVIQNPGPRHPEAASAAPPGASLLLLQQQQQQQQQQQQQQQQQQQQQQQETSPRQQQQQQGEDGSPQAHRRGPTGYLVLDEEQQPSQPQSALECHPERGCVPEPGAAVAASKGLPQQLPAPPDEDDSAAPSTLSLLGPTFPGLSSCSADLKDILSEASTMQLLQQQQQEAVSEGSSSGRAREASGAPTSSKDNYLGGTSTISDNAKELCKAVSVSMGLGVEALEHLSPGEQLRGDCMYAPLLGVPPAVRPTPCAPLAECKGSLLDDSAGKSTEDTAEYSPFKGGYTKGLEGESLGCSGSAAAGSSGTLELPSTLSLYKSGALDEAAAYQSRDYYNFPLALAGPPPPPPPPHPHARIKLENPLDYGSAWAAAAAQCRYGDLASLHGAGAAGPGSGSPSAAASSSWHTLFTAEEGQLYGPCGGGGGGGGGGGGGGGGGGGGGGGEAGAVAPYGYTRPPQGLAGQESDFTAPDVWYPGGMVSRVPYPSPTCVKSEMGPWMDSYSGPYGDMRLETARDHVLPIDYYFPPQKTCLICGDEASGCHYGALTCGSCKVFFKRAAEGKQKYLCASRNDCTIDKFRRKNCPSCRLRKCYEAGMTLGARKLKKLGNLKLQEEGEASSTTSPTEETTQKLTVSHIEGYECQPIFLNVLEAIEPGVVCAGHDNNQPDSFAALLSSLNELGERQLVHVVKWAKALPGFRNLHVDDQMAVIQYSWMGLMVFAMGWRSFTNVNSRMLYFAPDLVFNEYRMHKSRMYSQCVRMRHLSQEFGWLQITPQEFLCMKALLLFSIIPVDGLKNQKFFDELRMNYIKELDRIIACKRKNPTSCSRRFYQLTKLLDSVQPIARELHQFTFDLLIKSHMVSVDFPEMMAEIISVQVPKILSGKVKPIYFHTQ
Method: Firefly and Renilla luciferase activities, were determined using the Dual-Glo™luciferase assay kit. RLUs were determined using the GloMax®96-Microplate Luminometer.

inhibition at 10 µM (AR) [%] | melting point [°C] | SMILES | IC50 (PC-3) [µM] | IC50 (LNCaP) [µM] | IC50 (DU145) [µM] | IC50 (WPMY-1) [µM] | cytotoxic activity against PC-3 cells (in words) (PC-3) | cytotoxic activity against LNCaP cells (in words) (LNCaP) | cytotoxic activity against DU145 cells (in words) (DU145)
40.17 ± 0.24 | 122 to 123 | OCCc1ccc(CN2CCN(C(c3ccccc3)c3ccccc3)CC2)cc1 [Compound 3, 2-(4-((4-benzhydrylpiperazin-1-yl)methyl)phenyl)ethan-1-ol] | 8.13 ± 0.12 | 6.14 ± 0.58 | 11.1 ± 0.76 | > 50 | – | – | –
32.5 ± 0.65 | 125 to 126 | Cc1ccc(C(c2ccccc2)N2CCN(Cc3ccc(CCO)cc3)CC2)cc1 (stereo not drawn) [Compound 4, 2-(4-((4-(phenyl(p-tolyl)methyl)piperazin-1-yl)methyl)phenyl)ethan-1-ol] | 2.56 ± 0.32 | 4.67 ± 1.02 | 6.14 ± 0.24 | > 50 | strong cytotoxic activities | strong cytotoxic activities | strong cytotoxic activities
22.7 ± 0.72 | 128 to 129 | Cc1ccc(C(c2ccc(C)cc2)N2CCN(Cc3ccc(CCO)cc3)CC2)cc1 [Compound 5, 2-(4-((4-(di-p-tolylmethyl)piperazin-1-yl)methyl)phenyl)ethan-1-ol] | 12.1 ± 0.29 | 3.73 ± 0.58 | 9.82 ± 0.24 | 37.51 ± 0.37 | moderate activity | – | moderate activity
30.75 ± 0.17 | 116 to 117 | COc1ccc(C(c2ccccc2)N2CCN(Cc3ccc(CCO)cc3)CC2)cc1 (stereo not drawn) [Compound 6, 2-(4-((4-((4-methoxyphenyl)(phenyl)methyl)piperazin-1-yl)methyl)phenyl)ethan-1-ol] | 3.15 ± 0.48 | 6.17 ± 1.02 | 2.17 ± 0.72 | > 50 | strong cytotoxic activities | strong cytotoxic activities | strong cytotoxic activities
38.7 ± 0.83 | 116 to 117 | OCCc1ccc(CN2CCN(C(c3ccccc3)c3ccc(F)cc3)CC2)cc1 (stereo not drawn) [Compound 7, 2-(4-((4-((4-fluorophenyl)(phenyl)methyl)piperazin-1-yl)methyl)phenyl)ethan-1-ol] | 1.87 ± 0.22 | 5.17 ± 0.63 | 2.17 ± 1.12 | 48.26 ± 0.41 | strong cytotoxic activities | strong cytotoxic activities | strong cytotoxic activities
25.2 ± 0.71 | 133 to 134 | OCCc1ccc(CN2CCN(C(c3ccc(F)cc3)c3ccc(F)cc3)CC2)cc1 [Compound 8, 2-(4-((4-(bis(4-fluorophenyl)methyl)piperazin-1-yl)methyl)phenyl)ethanol] | 10.12 ± 0.08 | 4.92 ± 0.29 | 12.3 ± 0.16 | 35.53 ± 0.13 | – | – | –
28.42 ± 0.25 | 130 to 131 | OCCc1ccc(CN2CCN(C(c3ccccc3)c3ccc(Cl)cc3)CC2)cc1 (stereo not drawn) [Compound 9, 2-(4-((4-((4-chlorophenyl)(phenyl)methyl)piperazin-1-yl)methyl)phenyl)ethanol] | 1.53 ± 0.16 | 4.13 ± 0.06 | 7.63 ± 0.12 | > 50 | strong cytotoxic activities | strong cytotoxic activities | strong cytotoxic activities
20.47 ± 0.18 | 127 to 128 | OCCc1ccc(CN2CCN(C(c3ccc(Cl)cc3)c3ccc(Cl)cc3)CC2)cc1 [Compound 10, 2-(4-((4-(bis(4-chlorophenyl)methyl)piperazin-1-yl)methyl)phenyl)ethan-1-ol] | 15.24 ± 0.14 | 7.14 ± 0.29 | 10.8 ± 1.14 | > 50 | – | – | –
58.88 ± 0.23 | 117 to 118 | COc1ccc(CN2CCN(Cc3ccc(CCO)cc3)CC2)cc1 [Compound 14, 2-(4-((4-(4-methoxybenzyl)piperazin-1-yl)methyl)phenyl)ethan-1-ol] | 11.1 ± 0.67 | 16.2 ± 0.53 | 24.1 ± 0.47 | > 50 | – | – | –
36.5 ± 0.79 | 121 to 122 | OCCc1ccc(CN2CCN(C3c4ccccc4Sc4ccccc43)CC2)cc1 [Compound 17, 2-(4-((4-(9H-thioxanthen-9-yl)piperazin-1-yl)methyl)phenyl)ethan-1-ol] | 6.42 ± 0.52 | 5.61 ± 0.86 | 8.35 ± 0.28 | > 50 | – | – | –
– | – | CC(C)(C)NC(=O)[C@H]1CC[C@H]2[C@@H]3CC[C@H]4NC(=O)C=C[C@]4(C)[C@H]3CC[C@]12C [Finasteride, reference compound] | 17.8 | 13.5 | 14.6 | – | – | – | –
– | – | COc1ccccc1N1CCN(CC(O)COc2cccc3ccccc23)CC1 (stereo not drawn) [Naftopidil, reference compound] | 42.1 ± 0.79 | 22.4 ± 0.61 | 34.58 ± 0.31 | > 50 | – | – | –

SMILES | inhibition at 10 µM (AR) [%] | melting point [°C] | IC50 (PC-3) [µM] | IC50 (LNCaP) [µM] | IC50 (DU145) [µM] | IC50 (WPMY-1) [µM] | cytotoxic activity against PC-3 cells (in words) (PC-3) | cytotoxic activity against LNCaP cells (in words) (LNCaP) | cytotoxic activity against DU145 cells (in words) (DU145)
OCCc1ccc(CN2CCN(Cc3ccccc3)CC2)cc1 [Compound 11, 2-(4-((4-benzylpiperazin-1-yl)methyl)phenyl)ethan-1-ol] | 65.15 ± 0.57 | 119 to 120 | 20.4 ± 0.48 | 11.2 ± 0.14 | 11.3 ± 0.27 | > 50 | – | – | –
CC(c1ccccc1)N1CCN(Cc2ccc(CCO)cc2)CC1 (stereo not drawn) [Compound 12, 2-(4-((4-(1-phenylethyl)piperazin-1-yl)methyl)phenyl)ethan-1-ol] | 68.62 ± 0.38 | 114 to 115 | 13.7 ± 1.12 | 7.76 ± 0.19 | 16.3 ± 0.63 | > 50 | – | – | –
Cc1ccc(CN2CCN(Cc3ccc(CCO)cc3)CC2)cc1 [Compound 13, 2-(4-((4-(4-methylbenzyl)piperazin-1-yl)methyl)phenyl)ethan-1-ol] | 64.18 ± 0.45 | 112 to 113 | 15.4 ± 0.42 | 22.1 ± 0.76 | 17.2 ± 1.02 | 47.14 ± 0.42 | – | – | –
OCCc1ccc(CN2CCN(Cc3ccc(F)cc3)CC2)cc1 [Compound 15, 2-(4-((4-(4-fluorobenzyl)piperazin-1-yl)methyl)phenyl)ethan-1-ol] | 64.35 ± 0.17 | 114 to 115 | 10.5 ± 1.14 | 18.45 ± 0.16 | 16.2 ± 0.62 | > 50 | – | – | –
OCCc1ccc(CN2CCN(Cc3ccc(Cl)cc3)CC2)cc1 [Compound 16, 2-(4-((4-(4-chlorobenzyl)piperazin-1-yl)methyl)phenyl)ethan-1-ol] | 60.25 ± 0.35 | 109 to 110 | 14.4 ± 0.35 | 16.4 ± 0.19 | 31.5 ± 1.21 | > 50 | – | – | –

— paper PMC9671208, “Synthesis, biological evaluation, and molecular docking of novel hydroxyzine derivatives as potential AR antagonists” (Frontiers in Chemistry, 2022)
